The values that follow come from patent US9642839B2, “Substance having tyrosine kinase inhibitory activity and preparation method and use thereof” (Institute of Radiation Medicine, China Academy of Military …, priority 2013, dated 2017).

Experiment [1] deals with non-small cell lung cancer (NSCLC). Particulars: 250 mg/day tablet, NSCLC patients with previous chemotherapy, 159 subjects; cited from earlier work.
The subject of experiment [2] is protein tyrosine kinase (PTK). The experiment can be described thus: PTK activity assay with mouse brain tissue extract (ELISA, OD 492 nm). The class given is biochemical. Particulars: at 400 μM. How it is done: Tyrosine kinase buffer: 10 mL 1M HEPES (pH 7.5), 0.4 mL 5% BSA/PBS, 0.2 mL 0.1M Na3VO4, and 1 mL 5M NaCl were added to 88.4 mL double distilled water (DDW) (HEPES: Amresco; Na3VO4: Sigma).
Extraction of tissue extract PTK: mouse brain tissue was quickly removed and weighed, followed by addition of five-fold volumes of pre-cooled homogenization buffer for homogenization. After centrifugation at 4° C., 1,000 g for 10 min, nuclei and cell debris were removed. The supernatant S1 was collected and centrifuged at 4° C., 10,000 g for 20 min, and then the supernatant S2 was collected. The precipitate P2, which represents the crude membrane protein fraction, was retained. S2 included cytoplasmic protein, and was used for testing protein tyrosine kinase (PTK) activity. In the detection of the membrane protein fraction, two-fold volumes of lysis buffer was added to P2, and the resultant was placed on ice for 10 min and centrifuged at 4° C., 10,000 g for 10 min. The supernatant S3, which represents the crude membrane protein including soluble membrane protein, was collected for testing PTK activity. Protein content in cytoplasm or membrane protein was detected by using BCA protein concentration kit (purchased from Beyotime Institute of Biotechnology). The tissue extract was stored at −70° C.
Coating of 96-well plate: PTK substrate was dissolved and added in an amount of 100 μl to each well. The plate was covered with its lid, and incubated at 4° C. overnight (10-12 hours). Then it was washed with 200 μl elution buffer once, and dried at 37° C. for 2 h. After that, it was washed with 10 mM PBS once, dried at room temperature, and then stored at 4° C. for further use.
Groups: blank control: 80 μl 1× tyrosine kinase buffer containing ATP+20 μl 1× tyrosine kinase buffer; negative control: 80 μl 1× tyrosine kinase buffer containing ATP+10 μl 1× tyrosine kinase buffer+7 μl tissue extract+3 μl 1× tyrosine kinase buffer; positive control: 80 μl 1× tyrosine kinase buffer containing ATP+10 μl Gefitinib+7 μl tissue extract+3 μl 1× tyrosine kinase buffer (first, the positive drug was allowed to interact with the tyrosine kinase tissue extract at room temperature for 10 min, and meanwhile the tissue extract for the negative control group was also placed at room temperature for 10 min, and then 80 μl 1× tyrosine kinase buffer containing ATP was added to respective groups); vehicle control: 80 μl 1× tyrosine kinase buffer containing ATP+10 μl DMSO+7 μl tissue extract+3 μl 1× tyrosine kinase buffer; drugs to be screened: 80 μl 1× tyrosine kinase buffer containing ATP+10 μl drug to be tested +7 μl tissue extract+3 μl 1× tyrosine kinase buffer.
PTK activity assay: 1× tyrosine kinase buffer was prepared by evenly mixing 1 mL (10×) tyrosine kinase buffer with 9 mL DDW. The tissue extract was diluted with 1× tyrosine kinase buffer appropriately, mixed with it gently and evenly, and placed on ice. ATP stock solution was dissolved by evenly mixing 48 μl ATP stock solution with 1 mL 1× tyrosine kinase buffer, and placed on ice. The microplate reader was added in respective wells with the groups formulated as above, covered with the lid, and incubated at room temperature for 30 min. The microplate reader was washed with 200 μl elution buffer and tapped until the residual buffer was removed, and this procedure was repeated for five times. To each well, 100 μl antibody diluent (antibody elution buffer diluted at a ratio of 1:2000) was added. The reader was covered with the lid, and incubated at room temperature for 30 min. OPD solution was prepared by addition of 4 mg OPD into a mixture of 4.86 mL 0.1 mol/L citric acid solution and 5.14 mL 0.2 mol/L Na2HPO4 solution, followed by addition of 50 μl 30% H2O2 to allow for complete dissolution, and then was protected from light. The antibody solution was removed. The reader was washed with 200 μl elution buffer and tapped until the residual buffer was removed, and this procedure was repeated for five times.

The subject of another experiment is A375 cells. The experiment can be described thus: In vitro antitumor activity, MTS cell proliferation. The class given is cell-based. The settings on record: A375, skin cancer, 72 hours. How it is done: (§1) Method: 14 cell lines (MKN-45 cells, MHCC97-L cells, MHCC97-H cells, HLE cells, HepG2 cells, 7721 cells, L02 cells, A375 cells, H460 cells, A549 cells, SK-N-SH cells, MCF-7 cells, K562 cells, and Ba/F3-Tpr-Met cells (pre-B cells which are malignantly transformed by the c-Met constitutive active mutant Tpr-Met) were seeded into 96-well plate at 1×10^4 cells/well, and each well was added with 150 μl DMEM medium (purchased from Invitrogen) containing 10% fetal bovine serum (purchased from Hyclone). When cell adherent was observed, different concentrations of 2-indolone derivatives (concentrations at 0.1-10 μM) were added, in addition to the negative control (vehicle control group) and blank control (medium group). After culture at 37° C., 5% CO2 for 72 hours, MTS reagent (Promega Corporation) were added for further culture for 2-4 h.

A further experiment deals with Ba/F3-Tpr-Met cells. Described as above. The class given is cell-based. Particulars: pre-B cell, 72 hours. As to the method: as §1
For a further experiment, the system named is H460 cells. Described as above. The class given is cell-based. The settings on record: H460, lung cancer, 72 hours. As to the method:
as §1

The test system of another experiment is HLE cells. Described as above. It is filed as cell-based. Particulars: hepatocellular cancer, 72 hours. How it is done:
as §1

Another experiment deals with HepG2 cells. The experiment is described as above. It is filed as cell-based. The settings on record: HepG2, hepatocellular cancer, 72 hours. How it is done:
as §1

The subject of another experiment is K562 cells. The experiment is described as above. It is filed as cell-based. Particulars: K562, leukemia, 72 hours. As to the method: as §1
Another experiment concerns MCF-7 cells. Described as above. The class given is cell-based. The settings on record: MCF-7, breast cancer, 72 hours. As to the method: as §1
Another experiment has as its system MHCC97-L cells. Described as above. The class given is cell-based. The settings on record: hepatocellular cancer, 72 hours. How it is done: as §1
Another experiment concerns MKN-45 cells. The description is as above. Particulars: MKN-45, gastric cancer, 72 hours. The class given is cell-based. How it is done:
as §1

For a further experiment, the system named is SK-N-SH cells. The experiment is described as above. The settings on record: neuroblastoma, 72 hours. The class given is cell-based. As to the method:
as §1

In the next experiment the test system is A549 cells. Described as above. The class given is cell-based, human. The settings on record: A549, lung cancer, 72 hours. As to the method: as §1
Another experiment concerns MHCC97-H cells. Described as above. Particulars: hepatocellular cancer, 72 hours. The class given is cell-based, human. As to the method: as §1
For the next experiment, the system named is L02 cells. The experiment can be described thus: MTS cell proliferation, normal liver cells. The class given is cell-based. The settings on record: L02, normal hepatic cells, 72 hours. How it is done:
[…] After culture at 37° C., 5% CO2 for 72 hours, MTS reagent (Promega Corporation) were added for further culture for 2-4 h.

In the case of `COc1cc2ncnc(Nc3ccc(F)c(Cl)c3)c2cc1OCCCN1CCOCC1` [Gefitinib], the Objective response rate in experiment [1] is given as 27.0%.

The IC50 is the concentration needed to halve the response being measured. A high value points to a need for much substance. With `CCOc1ccc(NS(=O)(=O)c2ccc3c(c2)C(=Cc2nc4ccccc4[nH]2)C(=O)N3)cc1` [Indo 9, 3-(1H-benzimidazol-2-methylene)-5-(4-ethoxyphenylaminosulfo)-2-indolone], the “Inhibition rate on tyrosine kinase” value in experiment [2] came out at 51.3%. Also, the IC50 in the experiment on A375 cells came to 2120 nM; in the experiment on Ba/F3-Tpr-Met cells, 4910 nM; in the experiment with H460 cells, 1250 nM; with HLE cells it was 5910 nM; with HepG2 cells, 5980 nM; in the experiment with K562 cells, 2640 nM. Also, the IC50 with MCF-7 cells was 1350 nM; in the experiment on MHCC97-L cells, 1310 nM; in the experiment on MKN-45 cells, 1720 nM; in the experiment with SK-N-SH cells, 1220 nM; with A549 cells, 2520 nM; in the experiment with MHCC97-H cells, 1170 nM. This compound showed an IC50 with L02 cells of 23200 nM.
